Reference: the supplement of paper PMC10307832

How the values were obtained:
Experiment in all cases: relative viability (nuclei count vs DMSO), 5 days (fraction); higher = more cells survive
Entinostat + Pictilisib = compound: Nc1ccccc1NC(=O)c1ccc(CNC(=O)OCc2cccnc2)cc1 [Entinostat] + CS(=O)(=O)N1CCN(Cc2cc3nc(-c4cccc5[nH]ncc45)nc(N4CCOCC4)c3s2)CC1 [Pictilisib] (partner 1 µM)
Outline: (§1)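 For relative viability, nuclei counts in treated wells were divided by those in vehicle wells. Lung cancer cell lines had been pin-tool dosed in 1536-well plates the day after seeding and cultured for 5 days, then fixed and stained in one step (final 0.05% Triton X-100, 1% formaldehyde, 1 ug/ml Hoechst) and imaged at 4×. Doses were one drug alone or a fixed anchor-drug dose plus five library-drug doses (not always all listed) in √10 steps, and values are duplicate-plate medians.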

[1] = compound: C1COCCN1C2=NC(=NC3=C2OC4=C3C=CC=N4)C5=CC(=CC=C5)NC(=O)C6=CN=C(C=C6)N + CS(=O)(=O)CCNCc1ccc(-c2ccc3ncnc(Nc4ccc(OCc5cccc(F)c5)c(Cl)c4)c3c2)o1 [Lapatinib] (partner 2 µM)
Outline: as §1

[2] = compound: C1COCCN1C2=NC(=NC3=C2OC4=C3C=CC=N4)C5=CC(=CC=C5)NC(=O)C6=CN=C(C=C6)N + CCNC(=O)c1noc(-c2cc(C(C)C)c(O)cc2O)c1-c1ccc(CN2CCOCC2)cc1 [Luminespib] (partner 0.01 µM)
Outline: as §1

[3] = compound: C1COCCN1C2=NC(=NC3=C2OC4=C3C=CC=N4)C5=CC(=CC=C5)NC(=O)C6=CN=C(C=C6)N + NC(=O)Nc1cc(-c2cccc(F)c2)sc1C(=O)N[C@H]1CCCNC1 [AZD7762] (partner 0.2 µM)
Outline: as §1

Row | Cell Line | relative viability (Entinostat + Pictilisib; first compound 0.02 µM) | relative viability (Entinostat + Pictilisib; first compound 0.06325 µM) | relative viability (Entinostat + Pictilisib; first compound 0.2 µM) | relative viability (Entinostat + Pictilisib; first compound 0.6325 µM) | relative viability (Entinostat + Pictilisib; first compound 2 µM) | relative viability ([1]; first compound 0.02 µM) | relative viability ([1]; first compound 0.06325 µM) | relative viability ([1]; first compound 0.2 µM) | relative viability ([1]; first compound 0.6325 µM) | relative viability ([1]; first compound 2 µM) | relative viability ([2]; first compound 0.02 µM) | relative viability ([2]; first compound 0.06325 µM) | relative viability ([2]; first compound 0.2 µM) | relative viability ([2]; first compound 0.6325 µM) | relative viability ([2]; first compound 2 µM) | relative viability ([3]; first compound 0.02 µM) | relative viability ([3]; first compound 0.2 µM) | relative viability ([3]; first compound 0.6325 µM) | relative viability ([3]; first compound 2 µM) | relative viability ([3]; first compound 0.06325 µM)
1 | EPLC-272H | 0.419 | 0.37 | 0.327 | 0.219 | 0.254 | 0.886 | 1.02 | 0.674 | 0.825 | 0.53 | 0.242 | 0.588 | 0.401 | 0.271 | 0.33 | 0.217 | 0.251 | 0.23 | 0.19 | –
2 | EKVX | 0.441 | 0.517 | 0.36 | 0.298 | 0.217 | 0.189 | 0.181 | 0.221 | 0.215 | 0.207 | 0.885 | 0.859 | 0.723 | 0.755 | 0.664 | 0.9 | 0.747 | 0.709 | 0.578 | 0.869
3 | NCI-H1666 | 0.44 | 0.403 | 0.34 | 0.258 | 0.258 | 0.708 | 0.598 | 0.56 | 0.648 | 0.434 | 0.88 | 0.996 | 0.957 | 0.727 | 0.63 | 0.91 | 0.861 | 0.757 | 0.811 | 0.827
4 | HCC-15 | 0.714 | 0.663 | 0.626 | 0.188 | 0.266 | 0.865 | 0.883 | 0.811 | 0.818 | 0.511 | 0.33 | 0.251 | 0.292 | 0.234 | 0.242 | 1.29 | 1.24 | 1.06 | 0.982 | 1.28
5 | LCLC-97TM1 | 0.196 | 0.193 | 0.166 | 0.104 | 0.122 | – | 1.25 | 1.15 | 0.892 | 0.761 | 0.787 | 0.908 | 0.739 | 0.826 | 0.566 | 0.19 | 0.231 | 0.258 | 0.256 | 0.236
6 | NCI-H2347 | 0.494 | 0.321 | 0.333 | 0.216 | 0.345 | 0.993 | 0.787 | 0.929 | 0.944 | 0.933 | 0.37 | 0.283 | 0.341 | 0.342 | 0.315 | 0.768 | 0.683 | 0.666 | 0.618 | 0.787
7 | NCI-H1915 | 0.899 | 0.94 | 0.844 | 0.328 | 0.218 | 0.955 | 1.04 | 1.03 | 1.01 | 0.443 | 0.95 | 0.85 | 0.829 | 0.432 | 0.267 | 0.72 | 0.716 | 0.726 | 0.664 | 0.767
8 | NCI-H647 | 0.508 | 0.755 | 0.469 | 0.314 | 0.093 | 1.11 | 1.22 | 0.965 | 0.868 | 0.275 | 0.31 | 0.193 | 0.189 | 0.125 | 0.127 | 0.481 | 0.373 | 0.527 | 0.359 | 0.627
9 | NCI-H2087 | 0.741 | 0.822 | 0.826 | 0.353 | 0.315 | 1.11 | 1.09 | 1.07 | 0.997 | 0.807 | 0.146 | 0.16 | 0.137 | 0.204 | 0.142 | 1.35 | 1.32 | 1.17 | 0.647 | 1.44
10 | PC-3 [JPC-3] | 0.684 | 0.746 | 0.623 | 0.387 | 0.306 | 0.444 | 0.459 | 0.438 | 0.476 | 0.398 | 0.704 | 0.675 | 0.754 | 0.675 | 0.613 | 0.904 | – | 0.784 | 0.625 | 0.752
11 | HOP-62 | 0.578 | 0.743 | 0.603 | 0.139 | 0.0745 | 0.945 | 1.42 | 1.06 | 0.925 | 0.531 | 0.882 | 0.983 | 0.833 | 0.863 | 0.44 | 0.732 | 0.434 | 0.633 | 0.291 | 0.494
12 | NCI-H2126 | 0.44 | 0.545 | 0.47 | 0.301 | 0.298 | 0.729 | 0.754 | 0.722 | 0.776 | 0.67 | 0.892 | 0.894 | 0.871 | 0.845 | 0.566 | 0.989 | 1.03 | 0.989 | 0.736 | 1.03
13 | NCI-H1793 | 0.317 | 0.333 | 0.285 | 0.235 | 0.219 | 0.884 | 0.971 | 0.575 | 0.56 | 0.405 | 0.16 | 0.192 | 0.168 | 0.165 | 0.158 | 0.723 | 0.357 | 0.298 | 0.279 | 0.457
14 | RERF-LC-KJ | 0.695 | 0.527 | 0.516 | 0.431 | 0.375 | 0.976 | 0.922 | 0.844 | 0.769 | 0.65 | 1.22 | 1.3 | 1.02 | 1.38 | 0.633 | 0.882 | 0.997 | 0.945 | 0.794 | 1.18
15 | H3255 | 0.475 | 0.395 | 0.301 | 0.202 | 0.168 | 0.241 | 0.238 | 0.23 | 0.238 | 0.293 | 0.79 | 0.851 | 0.689 | 1.03 | 0.9 | 0.923 | 0.856 | 0.859 | 0.7 | 0.959
16 | EMC-BAC-2 | 0.579 | 0.595 | 0.628 | 0.352 | 0.289 | 0.932 | 0.931 | 0.94 | 0.897 | 0.733 | 1.25 | 1.32 | 1.08 | 1.03 | 0.648 | 1.2 | 1.14 | 1.01 | 1.01 | 1.11
